Molecular target: Human Cav3.1 (Homo sapiens (Human), UniProt O43497)
Test: Human Cav3.1 calcium channel patch clamp assay (SyncroPatch 384PE, HEK-293 natClytin/TASK1+Cav3.1 cell line)
Assay type: cell-based
Settings: voltage dependent block (VDB); read-out: Cav3.1 (VDB) IC50
Procedure: Pulse generation and data collection were performed with PatchController384 V1.3.0 and DataController384 V1.2.1 (Nanion Technologies). Off-line analysis was performed using Excel and Graphpad Prism (V 8.4.2) with complete data files uploaded to Dotmatics. The access resistance and apparent membrane capacitance were estimated using built-in protocols. Current was recorded in whole cell configuration from a population of cells. The cells were lifted, triturated, and resuspended at 800,000 cells/ml. The cells were allowed to recover in the cell hotel prior to experimentation. Currents were recorded at room temperature. The external solution contained the following (in mM): NaCl 80, NMDG 60, KCl 4, MgCl2 1, CaCl2 6, glucose 5 and HEPES 10 (pH=7.4, Osmolarity ˜300 mOsm). The extracellular solution was used as the wash, reference and compound delivery solution. […] The compound plate was created at 2× concentrated in the extracellular solution. The compound was diluted to 1:2 when added to the recording well. The amount of DMSO in the extracellular solution was held constant at the level used for the highest tested concentration. For the voltage clamp experiments on Cav3.1, data were sampled at 10 KHz. After establishment of the seal and the passage in the whole cell configuration, the cells were held at −120 mV. Cav3.1 current was evoked using a 100 ms step to −20 mV (to measure resting state block), followed by a 1600 ms step to −65 mV and a second 100 ms step to −20 mV (to measure voltage dependent block). The voltage protocol was applied every 15 seconds in the absence and in the presence of the compounds under investigation. […] Current amplitude (pA) was measured in the peak 1 and 2. The average of last 3 sweeps of each liquid period (vehicle, compound under investigation, full block) was calculated. Nickel-sensitive current was used to calculate the % of inhibition in the presence of the compound under investigation.
Pulse generation and data collection were performed with PatchController384 V1.3.0 and DataController384 V1.2.1 (Nanion Technologies). Off-line analysis was performed using Excel and Graphpad Prism (V 8.4.2) with complete data files uploaded to Dotmatics. The access resistance and apparent membrane capacitance were estimated using built-in protocols. Current was recorded in whole cell configuration from a population of cells.
The cells were lifted, triturated, and resuspended at 800,000 cells/ml. The cells were allowed to recover in the cell hotel prior to experimentation. Currents were recorded at room temperature. The external solution contained the following (in mM): NaCl 80, NMDG 60, KCl 4, MgCl2 1, CaCl2 6, glucose 5 and HEPES 10 (pH=7.4, Osmolarity ˜300 mOsm). The extracellular solution was used as the wash, reference and compound delivery solution.
The compound plate was created at 2× concentrated in the extracellular solution. The compound was diluted to 1:2 when added to the recording well. The amount of DMSO in the extracellular solution was held constant at the level used for the highest tested concentration. For the voltage clamp experiments on Cav3.1, data were sampled at 10 KHz. After establishment of the seal and the passage in the whole cell configuration, the cells were held at −120 mV. Cav3.1 current was evoked using a 100 ms step to −20 mV (to measure resting state block), followed by a 1600 ms step to −65 mV and a second 100 ms step to −20 mV (to measure voltage dependent block). The voltage protocol was applied every 15 seconds in the absence and in the presence of the compounds under investigation. […] Current amplitude (pA) was measured in the peak 1 and 2. The average of last 3 sweeps of each liquid period (vehicle, compound under investigation, full block) was calculated. Nickel-sensitive current was used to calculate the % of inhibition in the presence of the compound under investigation.

Sequence of Human Cav3.1 (O43497 whole entry): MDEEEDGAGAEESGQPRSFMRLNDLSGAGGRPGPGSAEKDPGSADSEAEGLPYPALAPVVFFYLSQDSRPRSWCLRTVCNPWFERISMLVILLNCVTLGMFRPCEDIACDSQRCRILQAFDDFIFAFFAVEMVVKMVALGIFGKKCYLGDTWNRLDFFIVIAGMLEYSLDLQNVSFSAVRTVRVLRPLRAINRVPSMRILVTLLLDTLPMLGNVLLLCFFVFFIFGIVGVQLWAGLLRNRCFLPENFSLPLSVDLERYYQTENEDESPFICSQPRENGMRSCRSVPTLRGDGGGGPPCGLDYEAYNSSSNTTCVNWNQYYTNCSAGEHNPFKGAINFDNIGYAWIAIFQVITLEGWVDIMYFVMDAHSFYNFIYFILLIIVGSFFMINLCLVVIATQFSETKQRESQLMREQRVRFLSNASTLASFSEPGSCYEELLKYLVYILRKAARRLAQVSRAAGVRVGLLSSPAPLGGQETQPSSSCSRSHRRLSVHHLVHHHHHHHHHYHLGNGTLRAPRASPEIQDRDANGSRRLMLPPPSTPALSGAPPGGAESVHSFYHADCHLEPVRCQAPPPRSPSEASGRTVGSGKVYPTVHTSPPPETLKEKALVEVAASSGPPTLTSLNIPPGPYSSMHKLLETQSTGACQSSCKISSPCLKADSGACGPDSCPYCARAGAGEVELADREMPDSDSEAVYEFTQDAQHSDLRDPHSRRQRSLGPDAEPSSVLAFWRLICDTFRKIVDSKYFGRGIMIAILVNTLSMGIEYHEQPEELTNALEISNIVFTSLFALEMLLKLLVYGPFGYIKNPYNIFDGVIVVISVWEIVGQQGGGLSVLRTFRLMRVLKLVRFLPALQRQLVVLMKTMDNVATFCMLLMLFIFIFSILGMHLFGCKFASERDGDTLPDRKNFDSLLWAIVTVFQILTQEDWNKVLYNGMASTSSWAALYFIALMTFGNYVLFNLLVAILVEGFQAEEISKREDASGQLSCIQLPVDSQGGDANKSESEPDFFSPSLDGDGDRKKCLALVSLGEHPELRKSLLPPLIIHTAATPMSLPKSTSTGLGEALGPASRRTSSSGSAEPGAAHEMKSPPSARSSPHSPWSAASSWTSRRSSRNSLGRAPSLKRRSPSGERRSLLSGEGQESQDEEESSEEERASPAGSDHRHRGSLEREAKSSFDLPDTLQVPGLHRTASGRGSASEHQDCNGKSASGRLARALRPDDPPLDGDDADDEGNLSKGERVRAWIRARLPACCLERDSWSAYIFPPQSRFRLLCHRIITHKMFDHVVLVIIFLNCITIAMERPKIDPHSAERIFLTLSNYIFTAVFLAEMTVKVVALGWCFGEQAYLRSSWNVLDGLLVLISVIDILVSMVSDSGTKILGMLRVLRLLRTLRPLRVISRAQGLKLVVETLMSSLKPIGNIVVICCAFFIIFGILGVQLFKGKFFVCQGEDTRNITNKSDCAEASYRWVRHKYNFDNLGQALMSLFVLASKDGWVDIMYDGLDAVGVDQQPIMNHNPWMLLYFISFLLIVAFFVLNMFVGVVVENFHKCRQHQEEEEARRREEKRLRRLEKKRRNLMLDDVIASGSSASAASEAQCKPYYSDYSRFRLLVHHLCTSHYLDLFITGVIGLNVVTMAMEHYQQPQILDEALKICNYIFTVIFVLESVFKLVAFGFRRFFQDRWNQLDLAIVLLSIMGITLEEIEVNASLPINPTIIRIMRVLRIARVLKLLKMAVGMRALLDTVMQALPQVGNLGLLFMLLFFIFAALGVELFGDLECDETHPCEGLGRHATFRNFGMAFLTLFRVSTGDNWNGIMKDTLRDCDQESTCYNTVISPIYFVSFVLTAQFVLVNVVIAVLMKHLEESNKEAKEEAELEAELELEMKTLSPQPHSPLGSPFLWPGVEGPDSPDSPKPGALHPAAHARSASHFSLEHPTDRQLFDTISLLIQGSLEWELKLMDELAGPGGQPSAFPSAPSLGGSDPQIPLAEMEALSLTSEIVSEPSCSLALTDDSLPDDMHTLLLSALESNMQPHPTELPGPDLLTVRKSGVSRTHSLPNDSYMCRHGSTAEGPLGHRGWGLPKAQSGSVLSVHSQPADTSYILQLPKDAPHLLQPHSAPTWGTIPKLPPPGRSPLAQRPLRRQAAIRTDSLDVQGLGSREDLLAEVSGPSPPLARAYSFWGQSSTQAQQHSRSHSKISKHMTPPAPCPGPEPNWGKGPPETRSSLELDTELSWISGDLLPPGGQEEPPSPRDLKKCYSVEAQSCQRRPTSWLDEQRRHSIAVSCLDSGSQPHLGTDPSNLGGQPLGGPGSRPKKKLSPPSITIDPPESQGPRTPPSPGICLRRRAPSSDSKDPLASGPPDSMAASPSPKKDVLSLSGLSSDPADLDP

Compound | IC50
N#CC1(CN2CC3(CCC(C(=O)Nc4cc(F)cc(Cl)c4)CC3)C2)CCCCC1 [Example 98] | 352 nM
O=C(Nc1cccc(Cl)c1)C1CCC2(CC1)CN(CC(F)(F)C1CCCCC1)C2 [Example 101] | 488 nM
O=C(Nc1cccc(Cl)c1)C1CCC2(CC1)CN(CCS(=O)(=O)c1ccccc1)C2 [Example 102] | 497 nM
O=C(CN1CC2(CCC(C(=O)Nc3cccc(Cl)c3)CC2)C1)NC1(C(F)(F)F)CC1 [Example 104] | 302 nM
CC(C)(C)S(=O)(=O)CCN1CC2(CCC(C(=O)Nc3cccc(Cl)c3)CC2)C1 [Example 106] | 739 nM
N#CC1(CN2CC3(CCC(C(=O)Nc4cc(F)cc(Cl)c4)CC3)C2)CCC(F)(F)CC1 [Example 107] | 427 nM
O=C(CN1CC2(CCC(C(=O)Nc3cccc(OC(F)F)c3)CC2)C1)NC1(C(F)(F)F)CC1 [Example 108] | 364 nM
O=C(CN1CC2(CCC(C(=O)Nc3cccc(C(F)F)c3)CC2)C1)NC1(C(F)(F)F)CC1 [Example 111] | 932 nM
COc1cccc(NC(=O)C2CCC3(CC2)CN(CC(=O)NC2(C(F)(F)F)CC2)C3)c1 [Example 112] | 1430 nM
[2H]C([2H])([2H])C(NC(=O)CN1CC2(CCC(C(=O)Nc3cc(F)cc(OC)c3)CC2)C1)(C([2H])([2H])[2H])C([2H])([2H])[2H] [Example 113] | 415 nM
CCOc1cccc(NC(=O)C2CCC3(CC2)CN(CC(=O)NC2(C(F)(F)F)CC2)C3)c1 [Example 114] | 1130 nM
Cc1cccc(NC(=O)C2CCC3(CC2)CN(CC(=O)NC2(C(F)(F)F)CC2)C3)c1 [Example 116] | 691 nM
Cc1cc(F)cc(NC(=O)C2CCC3(CC2)CN(CC(=O)NC2(C(F)(F)F)CC2)C3)c1 [Example 117] | 221 nM
N#CC1(CN2CC3(CCC(C(=O)Nc4cc(F)cc(Cl)c4)CC3)C2)CC1 [Example 118] | 529 nM
O=C(CN1CC2(CCC(C(=O)Nc3cc(F)cc(OC(F)F)c3)CC2)C1)NC1(C(F)(F)F)CC1 [Example 119] | 366 nM
O=C(CN1CC2(CCC(C(=O)Nc3ccc(Cl)c(F)c3)CC2)C1)NC1(C(F)(F)F)CC1 [Example 120] | 1070 nM
N#CC1(CN2CC3(CCC(C(=O)Nc4cc(F)cc(Cl)c4)CC3)C2)CCC1 [Example 122] | 750 nM
O=C(CN1CC2(CCC(C(=O)Nc3ccc(F)c(OC(F)(F)F)c3)CC2)C1)NC1(C(F)(F)F)CC1 [Example 123] | 297 nM

Compound | IC50
COc1cc(NC(=O)C2CCC3(CC2)CN(CC(=O)NC2(C(F)(F)F)CC2)C3)ccc1F [Example 125] | 588 nM
O=C(CN1CC2(CCC(C(=O)Nc3ccc(F)c(C(F)(F)F)c3)CC2)C1)NC1(C(F)(F)F)CC1 [Example 126] | 723 nM
N#CC1(CN2CC3(CCC(C(=O)Nc4cc(F)cc(Cl)c4)CC3)C2)CCCC1 [Example 130] | 296 nM
N#CC1(CN2CC3(CCC(C(=O)NCc4cc(F)cc(Cl)c4)CC3)C2)CCCCC1 [Example 131] | 664 nM
Cc1cc(NC(=O)C2CCC3(CC2)CN(CC(=O)NC2(C(F)(F)F)CC2)C3)ccc1F [Example 132] | 400 nM
N#CC1(CN2CC3(CCC(C(=O)Nc4cc(F)cc(C(F)F)c4)CC3)C2)CC1 [Example 134] | 1500 nM
N#CC1(CN2CC3(CCC(C(=O)Nc4cc(F)cc(OC(F)F)c4)CC3)C2)CC1 [Example 135] | 1010 nM
Cc1cc(Cl)cc(NC(=O)C2CCC3(CC2)CN(CC2(C#N)CC2)C3)c1 [Example 136] | 991 nM
N#CC1(CN2CC3(CCC(C(=O)Nc4cc(Cl)cc(OC(F)F)c4)CC3)C2)CC1 [Example 137] | 1260 nM
Cc1cc(Cl)cc(NC(=O)C2CCC3(CC2)CN(CC2(C#N)CCOCC2)C3)c1 [Example 141] | 1200 nM
N#CC1(CN2CC3(CCC(C(=O)Nc4cc(F)cc(Cl)c4)CC3)C2)CCOC1 (centres unmarked) [Example 142] | 2230 nM
O=C(CN1CC2(CCC(CNC(=O)c3cc(F)cc(Cl)c3)CC2)C1)NC1(C(F)(F)F)CC1 [Example 143] | 373 nM
Cc1cc(F)cc(C(=O)NCC2CCC3(CC2)CN(CC(=O)NC(C)(C)C)C3)c1 [Example 144] | 804 nM
CC(C)(C)NC(=O)CN1CC2(CCC(CNC(=O)c3cccc(Cl)c3)CC2)C1 [Example 145] | 569 nM
CC(C)(NC(=O)CN1CC2(CCC(CNC(=O)c3cccc(Cl)c3)CC2)C1)C(F)(F)F [Example 146] | 435 nM
O=C(NC12CCC(CC1)CC2)C1CCC2(CC1)CN(CC1(F)CCC(F)(F)CC1)C2 [Example 149] | 688 nM
CC(C)(C)C(O)CN1CC2(CCC(C(=O)NC34CC5CC(CC(C5)C3)C4)CC2)C1 (centres unmarked) [Example 152] | 583 nM
CC(C)(C)CCN1CC2(CCC(C(=O)NC34CC5CC(CC(C5)C3)C4)CC2)C1 [Example 154] | 1290 nM

The remaining lines, values ahead:

IC50 | Compound
645 nM | O=C(Nc1cc(F)cc(C(F)F)c1)C1CCC2(CC1)CN(CC(F)C1CCCC1)C2 (centres unmarked) [Example 93]
612 nM | N#CC1(CN2CC3(CCC(C(=O)Nc4cc(F)cc(C(F)F)c4)CC3)C2)CCCCC1 [Example 94]
597 nM | CC(C)(C)S(=O)(=O)CCN1CC2(CCC(C(=O)Nc3cc(F)cc(Cl)c3)CC2)C1 [Example 95]
814 nM | COc1cc(F)cc(NC(=O)C2CCC3(CC2)CN(CC2(C#N)CCCCC2)C3)c1 [Example 96]
550 nM | COc1cc(F)cc(NC(=O)C2CCC3(CC2)CN(CC2(C#N)CCC(F)(F)CC2)C3)c1 [Example 97]
537 nM | N#CC1(CN2CC3(CCC(C(=O)Nc4cc(F)cc(C(F)F)c4)CC3)C2)CCC(F)(F)CC1 [Example 99]
544 nM | N#CC1(CN2CC3(CCC(C(=O)Nc4cccc(Cl)c4)CC3)C2)CCCCC1 [Example 103]
204 nM | O=C(CN1CC2(CCC(C(=O)Nc3cccc(Cl)c3)CC2)C1)NC1(C(F)(F)F)CCC1 [Example 105]
231 nM | O=C(CN1CC2(CCC(C(=O)Nc3cccc(OC(F)F)c3)CC2)C1)NC1(C(F)(F)F)CCC1 [Example 109]
706 nM | N#CC1(CN2CC3(CCC(C(=O)Nc4cccc(Cl)c4)CC3)C2)CCC(F)(F)CC1 [Example 110]
219 nM | O=C(CN1CC2(CCC(C(=O)Nc3ccc(F)c(Cl)c3)CC2)C1)NC1(C(F)(F)F)CC1 [Example 115]
1260 nM | CC(C)(C#N)CN1CC2(CCC(C(=O)Nc3cc(F)cc(Cl)c3)CC2)C1 [Example 121]
149 nM | O=C(CN1CC2(CCC(C(=O)Nc3ccc(F)c(OC(F)F)c3)CC2)C1)NC1(C(F)(F)F)CC1 [Example 124]
492 nM | O=C(CN1CC2(CCC(C(=O)Nc3ccc(F)c(C(F)F)c3)CC2)C1)NC1(C(F)(F)F)CC1 [Example 127]
572 nM | N#CC1(CN2CC3(CCC(C(=O)Nc4cc(Cl)cc(Cl)c4)CC3)C2)CC1 [Example 128]
432 nM | N#CC1(CN2CC3(CCC(C(=O)Nc4cc(F)cc(OC(F)F)c4)CC3)C2)CCCCC1 [Example 133]
2270 nM | COc1cc(F)cc(NC(=O)C2CCC3(CC2)CN(CC2(C#N)CC2)C3)c1 [Example 138]
1370 nM | N#CC1(CN2CC3(CCC(C(=O)Nc4cc(F)cc(Cl)c4)CC3)C2)CCOCC1 [Example 139]
283 nM | O=C(CN1CC2(CCC(C(=O)Nc3cc(F)cc(Cl)c3)CC2)C1)NC1(C(F)F)CC1 [Example 140]
534 nM | O=C(CN1CC2(CCC(CNC(=O)c3cccc(Cl)c3)CC2)C1)NC1(C(F)(F)F)CC1 [Example 147]
357 nM | O=C(CN1CC2(CCC(C(=O)NC34CCC(CC3)CC4)CC2)C1)NC1(C(F)(F)F)CC1 [Example 148]
1960 nM | O=C(CN1CC2(CCC(C(=O)NC34CCC(CC3)C4)CC2)C1)NC1(C(F)(F)F)CC1 [Example 150]
404 nM | O=C(CN1CC2(CCC(C(=O)NC34CC5CC(CC(C5)C3)C4)CC2)C1)NC1(C(F)(F)F)CC1 [Example 151]
